From PubChem BioAssay AID330 (DTP/NCI, 2004)
Values joined by “and” are separate entries in the source; they are usually repeats but may differ in a detail not shown here. Equal entries are not always repeated. Toxic doses and inconclusive results are not listed.

System: P388 leukemia ip, CD2F1 mice, survival T/C
Assay: NCI In Vivo Anticancer Drug Screen. Data for tumor model P388 Leukemia (intraperitoneal) in CD2F1 (CDF1) mice
Conditions: endpoint: median survival time, higher = longer survival
Method in brief: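 Mice carrying the transplanted tumor received test compound or vehicle. Survival was recorded in each group, and the value is the treated-group measurement divided by that of the vehicle-treated control group.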

[1] = dose: 25.0 mg/kg/injection, schedule: Q01DX009 (ip), vehicle: other
[2] = dose: 100.0 mg/kg/injection, schedule: Q01DX009 (ip), vehicle: other
[3] = dose: 200.0 mg/kg/injection, schedule: Q01DX009 (ip), vehicle: other
[4] = dose: 50.0 mg/kg/injection, schedule: Q01DX005 (ip), vehicle: saline with Tween-80
[5] = dose: 100.0 mg/kg/injection, schedule: Q01DX005 (ip), vehicle: saline with Tween-80
[6] = dose: 200.0 mg/kg/injection, schedule: Q01DX005 (ip), vehicle: saline with Tween-80
[7] = dose: 50.0 mg/kg/injection, schedule: Q01DX005 (ip), vehicle: Klucel (hydroxypropylcellulose) (HPC)
[8] = dose: 100.0 mg/kg/injection, schedule: Q01DX005 (ip), vehicle: Klucel (hydroxypropylcellulose) (HPC)
[9] = dose: 50.0 mg/kg/injection, schedule: Q01DX009 (ip), vehicle: saline
[10] = dose: 100.0 mg/kg/injection, schedule: Q01DX009 (ip), vehicle: saline
[11] = dose: 6.25 mg/kg/injection, schedule: Q01DX009 (ip), vehicle: saline with Tween-80
[12] = dose: 12.5 mg/kg/injection, schedule: Q01DX009 (ip), vehicle: saline with Tween-80
[13] = dose: 25.0 mg/kg/injection, schedule: Q01DX009 (ip), vehicle: saline with Tween-80
[14] = dose: 50.0 mg/kg/injection, schedule: Q01DX009 (ip), vehicle: saline with Tween-80
[15] = dose: 6.25 mg/kg/injection, schedule: Q01DX009 (ip), vehicle: water

Compound: O=c1c2cc3c(cc2c2cc([N+](=O)[O-])cc4c2n1CC4)OCO3
- T/C [1]: 98 % of control
- T/C (dose: 50.0 mg/kg/injection, schedule: Q01DX009 (ip), vehicle: other): 92 % of control
- T/C [2]: 90 % of control
- T/C [3]: 100 % of control
- T/C (dose: 400.0 mg/kg/injection, schedule: Q01DX009 (ip), vehicle: other): 104 % of control

Compound: CC(C)(C)OC(=O)n1cnc(CC(NC(=O)OCc2ccccc2)C(=O)O)c1 (stereo not given)
- T/C [4]: 105 % of control
- T/C [5]: 100 % of control
- T/C [6]: 106 % of control

Compound: C=CCOCN1c2cc(OC)c([C@@]3(C(=O)OC)C[C@@H]4CN(CCc5c3[nH]c3ccccc53)C[C@](O)(CC)C4)cc2[C@@]23CCN4CC=C[C@@](CC)([C@@H](OC(C)=O)[C@](O)(C(=O)OC)[C@H]12)[C@H]43
- T/C (dose: 1.0 mg/kg/injection, schedule: Q01DX001 (ip), vehicle: water): 109 % of control
- T/C (dose: 2.0 mg/kg/injection, schedule: Q01DX001 (ip), vehicle: water): 111 % of control
- T/C (dose: 4.0 mg/kg/injection, schedule: Q01DX001 (ip), vehicle: water): 115 % of control
- T/C (dose: 32.0 mg/kg/injection, schedule: Q01DX001 (ip), vehicle: other): 158 % of control

Compound: CCn1c(C)nc([N+](=O)[O-])c1Sc1ncn[nH]1
- T/C (dose: 25.0 mg/kg/injection, schedule: Q01DX005 (ip), vehicle: Klucel (hydroxypropylcellulose) (HPC)): 118 % of control
- T/C [7]: 115 % of control and 120 % of control
- T/C [8]: 121 % of control

Compound: OCC1OC(n2ccc3c(Cl)ncnc32)C(O)C1O (stereo not given)
- T/C (dose: 6.25 mg/kg/injection, schedule: Q01DX005 (ip), vehicle: suspension in saline): 110 % of control
- T/C (dose: 12.5 mg/kg/injection, schedule: Q01DX005 (ip), vehicle: suspension in saline): 117 % of control
- T/C (dose: 25.0 mg/kg/injection, schedule: Q01DX005 (ip), vehicle: suspension in saline): 96 % of control

Compound: O=Cc1ccc(O)c(O)c1
- T/C [9]: 106 % of control and 109 % of control
- T/C [10]: 110 % of control
- T/C (dose: 400.0 mg/kg/injection, schedule: Q01DX009 (ip), vehicle: saline): 107 % of control

Compound: CCOC(=O)/C=C(\C)SC1=CC(=O)c2ccccc2C1=O
- T/C (dose: 3.13 mg/kg/injection, schedule: Q01DX009 (ip), vehicle: saline with Tween-80): 86 % of control
- T/C [11]: 94 % of control
- T/C [12]: 99 % of control and 122 % of control
- T/C [13]: 100 % of control and 111 % of control
- T/C [14]: 100 % of control and 107 % of control

Compound: CC1CCCN2C(=O)CN(C3CCCCC3)CC(=O)N12 (stereo not given)
- T/C [4]: 100 % of control
- T/C [5]: 100 % of control
- T/C [6]: 100 % of control

Compound: Cc1cc[c]([Sn]([Cl])([O][Sn]([Cl])([c]2ccc(C)cc2)[c]2ccc(C)cc2)[c]2ccc(C)cc2)cc1
- T/C (dose: 1.56 mg/kg/injection, schedule: Q01DX005 (ip), vehicle: Klucel (hydroxypropylcellulose) (HPC)): 105 % of control
- T/C (dose: 3.12 mg/kg/injection, schedule: Q01DX005 (ip), vehicle: Klucel (hydroxypropylcellulose) (HPC)): 96 % of control
- T/C (dose: 3.12 mg/kg/injection, schedule: Q01DX005 (ip), vehicle: saline): 115 % of control
- T/C (dose: 6.25 mg/kg/injection, schedule: Q01DX005 (ip), vehicle: Klucel (hydroxypropylcellulose) (HPC)): 94 % of control
- T/C (dose: 6.25 mg/kg/injection, schedule: Q01DX005 (ip), vehicle: saline): 118 % of control
- T/C (dose: 12.5 mg/kg/injection, schedule: Q01DX005 (ip), vehicle: Klucel (hydroxypropylcellulose) (HPC)): 99 % of control

Compound: C[N+](C)=c1ccc2nc3c(ccc4ccccc43)oc-2c1
- T/C (dose: 3.12 mg/kg/injection, schedule: Q01DX005 (ip), vehicle: saline with Tween-80): 105 % of control
- T/C (dose: 6.25 mg/kg/injection, schedule: Q01DX005 (ip), vehicle: saline with Tween-80): 105 % of control
- T/C (dose: 12.5 mg/kg/injection, schedule: Q01DX005 (ip), vehicle: saline with Tween-80): 103 % of control

Compound: COc1cccc2c1C(=O)c1c(O)c3c(c(O)c1C2=O)CC(O)(C(C)=O)CC3OC1CC(NC2CCCCC2)C(O)C(C)O1 (stereo not given)
- T/C (dose: 6.25 mg/kg/injection, schedule: Q04DX003 (ip), vehicle: distilled water + Tween-80): 100 % of control
- T/C (dose: 12.5 mg/kg/injection, schedule: Q04DX003 (ip), vehicle: distilled water + Tween-80): 104 % of control
- T/C (dose: 25.0 mg/kg/injection, schedule: Q04DX003 (ip), vehicle: distilled water + Tween-80): 102 % of control
- T/C (dose: 50.0 mg/kg/injection, schedule: Q04DX003 (ip), vehicle: distilled water + Tween-80): 102 % of control
- T/C (dose: 100.0 mg/kg/injection, schedule: Q04DX003 (ip), vehicle: distilled water + Tween-80): 104 % of control
- T/C (dose: 200.0 mg/kg/injection, schedule: Q04DX003 (ip), vehicle: distilled water + Tween-80): 108 % of control

Compound: NC1=NC(c2c3ccccc3cc3ccccc23)N=C(Nc2cccc(Cl)c2)N1 (stereo not given)
- T/C [11]: 107 % of control
- T/C [12]: 114 % of control
- T/C [14]: 95 % of control

Compound: CCOC(=O)/C(C#N)=C(\C)c1ccc(O)c(OC)c1
- T/C (dose: 60.0 mg/kg/injection, schedule: Q01DX005 (ip), vehicle: saline with Tween-80): 100 % of control
- T/C (dose: 120.0 mg/kg/injection, schedule: Q01DX005 (ip), vehicle: saline with Tween-80): 101 % of control
- T/C (dose: 240.0 mg/kg/injection, schedule: Q01DX005 (ip), vehicle: saline with Tween-80): 95 % of control

Compound: CCN(CC)CCCC(C)NC(C)CCCN(CC)CC (stereo not given)
- T/C (dose: 3.13 mg/kg/injection, schedule: Q01DX009 (ip), vehicle: water): 112 % of control
- T/C [15]: 112 % of control
- T/C (dose: 12.5 mg/kg/injection, schedule: Q01DX009 (ip), vehicle: water): 99 % of control
- T/C (dose: 25.0 mg/kg/injection, schedule: Q01DX009 (ip), vehicle: water): 108 % of control
- T/C (dose: 50.0 mg/kg/injection, schedule: Q01DX009 (ip), vehicle: water): 104 % of control

Compound: CC(=O)OC1OC(COS(=O)(=O)c2ccc(C)cc2)C(OC(C)=O)C(OC(C)=O)C1OC(C)=O (stereo not given)
- T/C (dose: 12.5 mg/kg/injection, schedule: Q01DX009 (ip), vehicle: other): 93 % of control
- T/C [1]: 90 % of control
- T/C [2]: 87 % of control
- T/C [3]: 92 % of control

Compound: Fc1ccc(NC(=S)SCc2ccc(Cl)cc2)c(F)c1
- T/C (dose: 50.0 mg/kg/injection, schedule: Q01DX009 (ip), vehicle: suspension in saline): 93 % of control
- T/C (dose: 100.0 mg/kg/injection, schedule: Q01DX009 (ip), vehicle: suspension in saline): 100 % of control
- T/C (dose: 200.0 mg/kg/injection, schedule: Q01DX009 (ip), vehicle: suspension in saline): 100 % of control

Compound: C=CCNCCN1CCN(CCCN2c3ccccc3Sc3ccc(C(F)(F)F)cc32)CC1
- T/C (dose: 25.0 mg/kg/injection, schedule: Q04DX003 (ip), vehicle: saline): 91 % of control
- T/C (dose: 50.0 mg/kg/injection, schedule: Q04DX003 (ip), vehicle: saline): 119 % of control and 97 % of control

Compound: Clc1c(Br)c(-c2ccccc2)nc2ccccc12
- T/C [4]: 108 % of control
- T/C [5]: 110 % of control
- T/C [6]: 108 % of control

Compound: O=c1[nH]c2ccccc2nc1N=Nc1ccccc1
- T/C [4]: 96 % of control
- T/C [5]: 96 % of control

Compound: COc1ccc(OCCCBr)c(Br)c1
- T/C [7]: 101 % of control
- T/C [8]: 97 % of control
- T/C (dose: 200.0 mg/kg/injection, schedule: Q01DX005 (ip), vehicle: Klucel (hydroxypropylcellulose) (HPC)): 104 % of control

Compound: [Cl][Pt+2]([Cl])([Cl])[Cl].[Na+].[S-]c1ncnc2nc[nH]c12.[S-]c1ncnc2nc[nH]c12
- T/C (dose: 132.0 mg/kg/injection, schedule: Q01DX009 (ip), vehicle: saline with Tween-80): 100 % of control
- T/C (dose: 200.0 mg/kg/injection, schedule: Q01DX009 (ip), vehicle: saline with Tween-80): 109 % of control

Compound: C[n+]1c(-c2cccc(OCCCCCCCCCCCCCCCCOc3cccc(-c4c5cc(N)ccc5c5ccc(N)cc5[n+]4C)c3)c2)c2cc(N)ccc2c2ccc(N)cc21
- T/C (dose: 0.39 mg/kg/injection, schedule: Q01DX009 (ip), vehicle: water): 117 % of control
- T/C (dose: 0.78 mg/kg/injection, schedule: Q01DX009 (ip), vehicle: water): 117 % of control
- T/C (dose: 1.56 mg/kg/injection, schedule: Q01DX009 (ip), vehicle: water): 98 % of control and 119 % of control
- T/C (dose: 3.12 mg/kg/injection, schedule: Q01DX009 (ip), vehicle: water): 113 % of control
- T/C [15]: 179 % of control

Compound: C[n+]1cccc(C(=S)[S-])c1
- T/C [12]: 100 % of control
- T/C [13]: 95 % of control
- T/C [14]: 90 % of control

Compound: CN(C)C=Nc1ccccc1
- T/C [9]: 103 % of control
- T/C [10]: 103 % of control
- T/C (dose: 200.0 mg/kg/injection, schedule: Q01DX009 (ip), vehicle: saline): 108 % of control
